Values quoted from earlier work in patent US20230158012A1, “ORAL LIQUID FORMULATIONS OF LENVATINIB” (SHILPA MEDICARE LIMITED, priority 2020, published 2023).

Conditions: 5% w/w aqueous solution or suspension

SMILES	pH value
O=C1O[C@H](CO)[C@@H](O)[C@H](O)[C@H]1O [Gluconolactone]	2.40
O=P([O-])([O-])O.[K+].[K+] [dipotassium hydrogenphosphate]	9.11
O=P([O-])([O-])O.[Na+].[Na+] [disodium hydrogenphosphate]	9.26
NCC(=O)O [glycine]	6.17
[O]=[Mg] [magnesium oxide]	10.63
CC(=O)[O-].[Na+] [sodium acetate]	8.46
O=C([O-])[O-].[Na+].[Na+] [sodium carbonate]	11.45
O=C([O-])CC(O)(CC(=O)[O-])C(=O)[O-].[Na+].[Na+].[Na+] [sodium citrate]	8.22
O=C([O-])O.[Na+] [sodium hydrogencarbonate]	8.15
[Na+].[OH-] [sodium hydroxide]	13.56
